# Measurements as given in US9815796B2 (Merck Sharp & Dohme Corp., priority 2013, dated 2017).
# Read-outs that look alike come from different tables or passages of the source.
# Tests used:
# human PDE2A1 = human PDE2A1 (Homo sapiens (Human), UniProt O00408); assay: IMAP FP PDE selectivity panel, human PDE2A1; assay type: biochemical
# In short: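 IMAP FP format: substrate 50 nM FAM-cAMP plus 1000 nM cGMP, enzyme (insect-cell GST-tagged human PDE2A1) at ~20% conversion, 60 min reaction at room temperature. Apparent inhibition constants calculated from parallel/perpendicular fluorescence with KM 10,000 nM.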
# Rhesus PDE2A3 = Rhesus PDE2A3 (Macaca mulatta, UniProt B3VTJ2); assay: PDE2 fluorescence polarization (IMAP FP) inhibition assay, rhesus enzyme; assay type: biochemical, rhesus macaque
# Sequence of Rhesus PDE2A3 (B3VTJ2 1-941): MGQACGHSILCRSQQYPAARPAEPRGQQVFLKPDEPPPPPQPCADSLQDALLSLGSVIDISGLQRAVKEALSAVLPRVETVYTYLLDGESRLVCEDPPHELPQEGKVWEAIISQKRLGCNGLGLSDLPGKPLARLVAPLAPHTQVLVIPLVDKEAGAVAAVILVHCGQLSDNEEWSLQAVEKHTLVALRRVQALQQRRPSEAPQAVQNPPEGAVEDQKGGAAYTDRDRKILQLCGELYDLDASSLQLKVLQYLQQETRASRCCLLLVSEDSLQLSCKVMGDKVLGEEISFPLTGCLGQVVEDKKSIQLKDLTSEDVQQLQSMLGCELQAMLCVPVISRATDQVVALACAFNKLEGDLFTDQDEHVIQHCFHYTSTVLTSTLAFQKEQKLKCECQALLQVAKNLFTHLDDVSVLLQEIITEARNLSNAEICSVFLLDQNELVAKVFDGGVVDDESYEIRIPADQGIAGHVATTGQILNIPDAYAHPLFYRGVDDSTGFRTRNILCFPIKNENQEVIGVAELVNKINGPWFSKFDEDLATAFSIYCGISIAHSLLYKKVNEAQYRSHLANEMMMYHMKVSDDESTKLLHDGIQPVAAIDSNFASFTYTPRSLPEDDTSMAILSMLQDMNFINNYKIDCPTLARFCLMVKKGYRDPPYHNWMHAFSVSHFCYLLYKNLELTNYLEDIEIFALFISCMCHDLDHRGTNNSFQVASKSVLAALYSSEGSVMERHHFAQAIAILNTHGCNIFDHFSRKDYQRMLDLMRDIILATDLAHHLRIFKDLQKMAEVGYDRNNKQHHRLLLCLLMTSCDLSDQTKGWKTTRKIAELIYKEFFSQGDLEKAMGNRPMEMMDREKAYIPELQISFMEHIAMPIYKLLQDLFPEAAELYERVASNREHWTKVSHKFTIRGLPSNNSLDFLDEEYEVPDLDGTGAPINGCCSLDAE
# In short: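 IMAP FP (mP from parallel and perpendicular fluorescence against substrate-only control) was read ≥1 h after adding binding reagent. The preceding 60 min room-temperature reaction contained FAM-cAMP (50 nM) and cGMP (1 uM) in pH 7.2 Tris buffer with MgCl2 and DTT. Enzyme was supernatant of sonicated AD293 cells expressing rhesus PDE2A3; compounds were 3-fold titrated, DMSO 1% final.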
# [1] = Human PDE2, Lab B, read-out: Human PDE2 Ki (nM) - Lab B
# [2] = Rhesus PDE2, Lab A, read-out: Rhesus PDE2 Ki (nM) - Lab A
# [3] = Rhesus PDE2, Lab B, read-out: Rhesus PDE2 Ki (nM) - Lab B
# [4] = Human PDE2, Lab A, read-out: Human PDE2 Ki (nM) - Lab A
# Sequence of human PDE2A1 (O00408 other isoform, or with tags, fused parts or gaps): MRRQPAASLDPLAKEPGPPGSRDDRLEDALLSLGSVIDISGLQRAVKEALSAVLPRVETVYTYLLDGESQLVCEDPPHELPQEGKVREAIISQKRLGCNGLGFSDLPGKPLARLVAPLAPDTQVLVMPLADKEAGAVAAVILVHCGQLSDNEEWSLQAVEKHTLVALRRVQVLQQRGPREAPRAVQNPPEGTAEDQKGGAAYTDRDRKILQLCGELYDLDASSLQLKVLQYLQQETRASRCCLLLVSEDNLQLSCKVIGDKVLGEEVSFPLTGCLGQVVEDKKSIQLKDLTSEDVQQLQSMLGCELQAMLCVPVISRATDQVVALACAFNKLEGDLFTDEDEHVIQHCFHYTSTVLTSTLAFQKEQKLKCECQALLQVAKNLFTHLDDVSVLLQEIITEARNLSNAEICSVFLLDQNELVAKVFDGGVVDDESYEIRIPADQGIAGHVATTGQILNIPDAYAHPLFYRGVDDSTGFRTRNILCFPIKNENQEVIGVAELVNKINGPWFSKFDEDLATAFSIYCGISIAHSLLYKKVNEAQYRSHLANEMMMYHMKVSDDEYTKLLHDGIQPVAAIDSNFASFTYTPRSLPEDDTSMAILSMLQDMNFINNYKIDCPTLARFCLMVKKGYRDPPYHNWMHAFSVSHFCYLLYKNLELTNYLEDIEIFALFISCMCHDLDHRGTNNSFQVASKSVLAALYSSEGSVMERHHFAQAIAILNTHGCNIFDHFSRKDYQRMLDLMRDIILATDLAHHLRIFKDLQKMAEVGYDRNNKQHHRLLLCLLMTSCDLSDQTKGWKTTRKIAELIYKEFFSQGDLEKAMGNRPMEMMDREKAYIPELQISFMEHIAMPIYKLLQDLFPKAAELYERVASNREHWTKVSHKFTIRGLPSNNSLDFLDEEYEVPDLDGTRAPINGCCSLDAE
Ki (human PDE2A1; [1]),Ki (Rhesus PDE2A3; [2]),Ki (Rhesus PDE2A3; [3]),Ki (human PDE2A1; [4]),Compound
35 nM,22 nM,25 nM,,"CCc1ccc(C(C)NC(=O)c2cc(=O)[nH]c(-c3ncccn3)n2)cc1 (stereo not shown) [Example 79, N-[1-(4-ethylphenyl)ethyl]-6-oxo-1,6-dihydro-2,2′-bipyrimidine-4-carboxamide]"
37 nM,,44 nM,,"Cc1nc(C(=O)N[C@@H](c2ccc(OC(F)F)cc2)C(C)C)cc(=O)[nH]1 [Example 611, N-{(1R)-1-[4-(difluoromethoxy)phenyl]-2-methylpropyl}-2-methyl-6-oxo-1,6-dihydropyrimidine-4-carboxamide]"
,29 nM,,15 nM,"C[C@@H](NC(=O)c1cc(=O)[nH]c(-c2ccccc2)n1)c1ccc(C(F)(F)F)cc1F [Example 150, N-{(1R)-1-[2-fluoro-4-(trifluoromethyl)phenyl]ethyl}-6-oxo-2-phenyl-1,6-dihydropyrimidine-4-carboxamide]"
5.6 nM,3 nM,,,"C[C@@H](NC(=O)c1cc(=O)[nH]c(-c2ccccc2)n1)c1ccc(C2CC2)cc1 [Example 423, N-[(1R)-1-(4-cyclopropylphenyl)ethyl]-6-oxo-2-phenyl-1,6-dihydropyrimidine-4-carboxamide]"
,25 nM,,24 nM,"Cc1nc(C(=O)N[C@H](C)c2ccc(C(F)(F)F)c(F)c2)cc(=O)[nH]1 [Example 20, N-{(1R)-1-[3-fluoro-4-(trifluoromethyl)phenyl]ethyl}-2-methyl-6-oxo-1,6-dihydropyrimidine-4-carboxamide]"
2.5 nM,,2 nM,,"CC(C)c1ccc([C@H](NC(=O)c2cc(=O)[nH]c(C3CC3)n2)C2(C)CC2)cc1 [Example 444, 2-cyclopropyl-N-{(R)-(1-methylcyclopropyl)[4-(1-methylethyl)phenyl]methyl}-6-oxo-1,6-dihydropyrimidine-4-carboxamide]"
,61 nM,,35 nM,"C[C@@H](NC(=O)c1cc(=O)[nH]c(C2CC2)n1)c1ccc(C(F)(F)F)cc1F [Example 237, 2-cyclopropyl-N-{(1R)-1-[2-fluoro-4-(trifluoromethyl)phenyl]ethyl}-6-oxo-1,6-dihydropyrimidine-4-carboxamide]"
58 nM,28 nM,,,"O=C(NCc1ccc(S(F)(F)(F)(F)F)cc1)c1cc(=O)[nH]c(-c2ccccc2)n1 [Example 377, 6-oxo-N-[4-(pentafluoro-λ^6-sulfanyl)benzyl]-2-phenyl-1,6-dihydropyrimidine-4-carboxamide]"
,39 nM,,23 nM,"Cc1cc([C@@H](C)NC(=O)c2cc(=O)[nH]c(C3CC3)n2)ccc1C(F)(F)F [Example 231, 2-cyclopropyl-N-{(1R)-1-[3-methyl-4-(trifluoromethyl)phenyl]ethyl}-6-oxo-1,6-dihydropyrimidine-4-carboxamide]"
,6.1 nM,,3.3 nM,"O=C(N[C@@H](c1ccc(C(F)(F)F)cc1)C1CC1)c1cc(=O)[nH]c(C2CC2)n1 [Example 213, 2-cyclopropyl-N-{(R)-cyclopropyl[4-(trifluoromethyl)phenyl]methyl}-6-oxo-1,6-dihydropyrimidine-4-carboxamide]"
39 nM,19 nM,41 nM,,"Cc1nc(C(=O)N[C@H](C)c2ccc(C3CC3)cc2)cc(=O)[nH]1 [Example 258, N-[(1R)-1-(4-cyclopropylphenyl)ethyl]-2-methyl-6-oxo-1,6-dihydropyrimidine-4-carboxamide]"
1.8 nM,,2.6 nM,,"CC(C)(C)[C@@H](NC(=O)c1cc(=O)[nH]c(-c2ccccc2)n1)c1ccc(OC(F)F)cc1 [Example 449, N-{(1R)-1-[4-(difluoromethoxy)phenyl]-2,2-dimethylpropyl}-6-oxo-2-phenyl-1,6-dihydropyrimidine-4-carboxamide]"
1.4 nM,,1.3 nM,,"CC[C@@H](NC(=O)c1cc(=O)[nH]c(Cc2ccc(OC)cc2)n1)c1ccc(OC(F)(F)F)c(F)c1 [Example 484, N-{(1R)-1-[3-fluoro-4-(trifluoromethoxy)phenyl]propyl}-2-(4-methoxybenzyl)-6-oxo-1,6-dihydropyrimidine-4-carboxamide]"
